Assay results taken from PMC11836371, “Virtual fragment screening for DNA repair inhibitors in vast chemical space” (Nature Communications, 2025).
pIC50: −log10 of the molar value. “And” between values parts separate entries of the source, which are not always exact repeats. Equal entries are not always repeated. Where two headings read alike, the source gives them in different places.

Key:
[1] = target: T1, human OGG1 enzyme (Homo sapiens, UniProt O15527); test: Differential scanning fluorimetry (DSF) thermal shift assay; format: binding; design: ∆Tm (K): unit of the concentration uncertain; conditions: for ΔTm: concentration not given
Description: The temperature was increased from 20 °C to 85 °C with 10 readings/degree. Tm values were calculated using an excel template and fitting to the Boltzmann equation in Prism v.6.07 (GraphPad Software).

[2] = target: T1, human OGG1 enzyme; test: OGG1 glycosylase activity assay (enzyme inhibition, APE1-coupled fluorescence); format: biochemical; conditions: for pIC50: read-out: IC50
Description: “8” signifies 8-oxoA and “FAM” and “Dab” signify fluorescein and dabcyl (TriLink Biotech). Briefly, compounds dissolved in DMSO were dispensed using an Echo 550 (Labcyte), followed by transfer of enzyme and substrate solutions manually with a 16-channel pipette or with a Multidrop (Thermo Scientific). The plates were centrifuged, sealed and incubated at room temperature overnight (15 h) and read the following morning in an Hidex Sense plate reader (Hidex Oy) using a 485-nm filter with a bandwidth of 10 nm for excitation and a 535-nm filter with a bandwidth of 20 nm for emission.

[3] = 495 (unit uncertain) as printed in sheet footnote
[4] = Table S2, virtual fragment screen hits, read-out: pIC50 (converted)
[5] = 99 (unit uncertain) as printed in sheet footnote

T1 sequence (O15527 whole entry): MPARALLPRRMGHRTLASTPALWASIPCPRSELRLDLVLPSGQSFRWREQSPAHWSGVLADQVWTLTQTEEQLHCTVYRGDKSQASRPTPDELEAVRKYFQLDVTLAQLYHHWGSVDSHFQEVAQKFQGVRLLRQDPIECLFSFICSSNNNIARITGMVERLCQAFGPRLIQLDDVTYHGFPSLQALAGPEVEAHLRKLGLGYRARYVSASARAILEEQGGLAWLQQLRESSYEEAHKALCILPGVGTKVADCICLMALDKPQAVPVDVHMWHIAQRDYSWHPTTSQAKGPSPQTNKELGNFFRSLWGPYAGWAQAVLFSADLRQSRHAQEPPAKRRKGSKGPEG

Compound | ∆Tm (K) ([1]; 99 μM) | ∆Tm (K) ([1]; 495 µM) | also measured
Cc1ccc(CNC(=O)Nc2cnn(C)c2C(F)(F)F)c(C)c1 [ZINC000000241283] | 0.39 K |  | 
Cc1csc(NC(=O)c2ccc(N)cc2)n1 [ZINC000005740683] |  | 0.52 K | 
O=C(NCc1ccc2oc(=O)[nH]c2c1)c1cc(C2CC2)on1 [ZINC000025095824] | 0.10 K and 0.1 K |  | 
Cc1cnc(Nc2ncnc3ccccc23)s1 [ZINC000031949200] |  | -0.03 K | 
O=C(NCc1cnn(-c2ccccc2)c1)c1cc(C2CC2)no1 [ZINC000045518705] | -0.07 K |  | 
C[C](CNC(=O)c1cn2c(n1)CCC2)Oc1ccc(Cl)cc1 [ZINC000047544921] | 0.05 K |  | 
C[C](CNC(=O)c1cn(-c2ccccc2)nn1)Oc1ccc(C)cc1 [ZINC000080662795] | -0.11 K |  | 
O=C(NCc1ccccc1O)c1ccc(F)cc1 [ZINC000082283111] |  | 0.67 K | 
C[C](NC(=O)c1ccc(C)nc1)c1cnn(-c2ccc(F)cc2)c1C [ZINC000142711832] | -0.11 K |  | 
c1cnc2ccc(CNc3nnc4ccccn34)cc2c1 [ZINC000155922887] | inactivea |  | 
CCc1ccc(CC(=O)Nc2nnc(C3CC3)n2C)cc1 [ZINC000157183023] | Inactivea |  | 
Cc1csc(Nc2ncnc3sccc23)n1 [ZINC000163077816] |  | -0.51 K | 
Cc1n[nH]cc1CNC(=O)C(C)c1ccccc1 (stereo not drawn) [ZINC000182379077] |  | 0.08 K | 
COc1ccc(F)cc1CNC(=O)c1cn[nH]c1 [ZINC000188683358] |  | -0.01 K | 
C=Cc1ccc(C(=O)NCc2cn(-c3ccccc3)nc2C)cc1 [ZINC000192206237] | 0.83 K |  | 
CCCC1CCCC1C(=O)NCc1c[nH]nc1C (stereo not drawn) [ZINC000294547394] |  | 0.18 K | 
Cn1ncc(NC(=O)N[C]2COc3ccc(Cl)cc32)c1C(F)F [ZINC000337657385] | -0.16 K |  | 
Cc1ccn2c(NC(=O)C3(Oc4ccc(Cl)cc4)CC3)nnc2c1 [ZINC000341519123] | 0.37 K |  | 
CC1CC1CNC(=O)C1CCc2cccnc21 (stereo not drawn) [ZINC000341791847] |  | 0.38 K | 
C[C](CCc1ccccc1)C(=O)N1CC(c2ccccc2)C1 [ZINC000342133714] | 0.08 K |  | 
Cn1c(=O)n(C)c2cc(Nc3ncnc4ccccc34)ccc21 [ZINC000358521717] | 0.43 K |  | 
Cn1nc(Nc2ncnc3cc(F)c(F)cc23)cc1C1CC1 [ZINC000439491208] | -0.04 K |  | 

Compound | ∆Tm (K) ([1]; 99 μM) | ∆Tm (K) ([1]; 495 µM) | also measured
COc1ccc([C]2CCCCCN2C(=O)Nc2noc(C)c2C)cc1 [ZINC000455661485] | -0.14 K |  | 
O=C(NCc1nc(-c2ccccc2)no1)c1cn(-c2ccccc2)nn1 [ZINC000507023994] | -0.92 K |  | 
CC(=O)Nc1nc(-c2ccc(Cl)cc2)n[nH]1 [ZINC000517746346] |  | -0.15 K | 
C[C]C(=O)Nc1nnc2ccccn12 [ZINC000613462643] | 0.05 K |  | 
O=C(NCc1ccn(-c2ccccc2)n1)c1cc(-c2ccccc2)no1 [ZINC000617287579] | -0.19 K |  | 
Cc1ccc(NC(=O)N2CC(O)(c3ccc(Cl)cc3)C2)s1 [ZINC000633809751] | 0.48 K |  | 
Cc1cc(NC(=O)c2coc(C3CC3)n2)cs1 [ZINC000634423932] |  | -0.08 K | 
Cc1n[nH]cc1CNC(=O)NC1(C)CC1(C)C (stereo not drawn) [ZINC000663691150] |  | 0.01 K | 
O=C(NCC1([C](O)c2ccccc2)CC1)c1ccc(Cl)cc1 [ZINC000700852234] | -0.27 K |  | 
Cc1conc1NC(=O)c1csc2cncn12 [ZINC000772563154] |  | 0.52 K | 
Cc1ccc(NC(=O)N2CC(O)(c3ccc(Cl)cc3)C2)s1 [ZINC000776423770] | -0.42 K |  | 
Cc1ccccc1CNC(=O)Nc1cnnn1C [ZINC000787791820] |  | -0.02 K | 
O=C(NCC1(O)CCC1)c1nc(Cl)cs1 [ZINC000789956517] |  | 0.07 K | 
Cc1conc1NC(=O)c1nc(Cl)cs1 [ZINC000789997344] |  | -0.03 K | 
O=S(=O)(Nc1ccc(Cl)cc1F)N1CCc2ccccc2C1 [ZINC000990255105] | -0.03 K |  | 
CCc1ccc(C(=O)NC[C]2CS(=O)(=O)c3ccccc3O2)cc1 [ZINC001002782586] | -0.13 K |  | 
Cc1ccc(C(=O)NCc2nc(-c3cccnc3)no2)cc1C [ZINC001046413262] | -0.07 K |  | 
CCN(Cc1ccccc1)S(=O)(=O)NC1Cc2ccccc2C1 [ZINC001146929060] | 0.00 K and 0 K |  | 
O=C(Nc1noc2c1CCCC2)C1CC12CCC2 (stereo not drawn) [compound 1] |  |  | OGG1 inhibition, dose-response (Figure2C) ([2]; Concentration (M) 9.67e-7): 3.85 and 6.91; OGG1 inhibition, dose-response (Figure2C) ([2]; Concentration (M) 0.000248): 16.25 and 9.26; OGG1 inhibition, dose-response (Figure2C) ([2]; Concentration (M) 0.000495): 25.93 and 22.47; inhibition at 99 µM ([2]; at 99 μM, read-out: percent inhibition of OGG1): < 50%; IC50 ([2]; listed as Fragment 1): too weak to determine an IC50 value; pIC50 [2]: < 4.00; ∆Tm (K) [1, 3]: 2.8 K; ΔTm [1]: 2.8 K
CC1(C)CC(NC(=O)c2csc3cncn23)C1 [compound 4] |  | 0.5 K | IC50 [2, 4]: > 100 µM; ∆Tm (K) [1, 3]: 0.5 K
O=C(Nc1noc2c1CCCC2)[C@H]1Cc2ccccc21 [compound 5] | 4.1 ± 0.7 K |  | pIC50 [2]: 4.24; ∆Tm (K) [1, 5]: 4.1 ± 0.7 K; ΔTm [1]: 4.1 K
O=C(Cc1c(F)cccc1F)Nc1noc2c1CCCC2 [compound 6] | 1.1 ± 0.5 K |  | IC50 ([2]; Table 1, mean ± SD, at least three independent replicates, read-out: pIC50 (converted)): 36.3 µM; ∆Tm (K) [1, 5]: 1.1 ± 0.5 K

Further lines, with some results ahead:

∆Tm (K) ([1]; 99 μM) | ∆Tm (K) ([1]; 495 µM) | Compound | also measured
0.79 K |  | O=C(Cn1c(C(F)(F)F)nc2ccccc21)NCc1ccccc1 [ZINC000032814728] | 
 | 0.35 K | Cc1ccc(NC(=O)Nc2c[nH]nc2C)s1 [ZINC000075413056] | 
0.27 K |  | CC(C)(NC(=O)NCc1ccco1)c1ccc(Br)cc1 [ZINC000088254610] | 
 | 0.26 K | Cc1n[nH]cc1CNC(=O)C1Cc2ccccc21 (stereo not drawn) [ZINC000088452370] | 
 | -0.06 K | COCc1csc(NCc2ccccc2)n1 [ZINC000196610182] | 
 | 0.07 K | Cc1csc(NC(=O)N2CC(C)C(O)C2)n1 (stereo not drawn) [ZINC000350512979] | 
-0.01 K |  | CN1C(=O)Cc2cc(Nc3ncnc4c(F)cccc34)ccc21 [ZINC000350560229] | 
0.23 K |  | O=C(NC1CN(C(=O)c2ccc(Cl)s2)C1)c1ccc(Cl)o1 [ZINC000357905855] | 
-0.23 K |  | Cn1ncc2c(Nc3cccc(-c4cccs4)c3)ncnc21 [ZINC000445022399] | 
-0.38 K |  | COc1ccc2[nH]cc(CC(=O)Nc3nnc4cc(C)ccn34)c2c1 [ZINC000520908378] | 
0.17 K |  | COc1ccc(C2(CNC(=O)c3ccc(F)s3)CCC2)cc1 [ZINC000572161337] | 
0.65 K |  | O=C(NCC1(O)CN(C(=O)c2cccnn2)C1)c1ccc(Cl)cc1 [ZINC000584413720] | 
 | 0.11 K | COCC(C)(O)C(=O)Nc1cnc2ccccn12 (stereo not drawn) [ZINC000618358369] | 
 | 0.03 K | Cc1cc(=O)c(C(=O)NC2(C)CC2(C)C)c[nH]1 (stereo not drawn) [ZINC000620078540] | 
-0.08 K |  | Cc1cccc2nc(C(=O)NCc3ccc(Br)o3)cn12 [ZINC000677630607] | 
 | 0.01 K | Cc1cc(CNC(=O)c2c(O)cccc2F)[nH]n1 [ZINC000681276767] | 
 | -0.05 K | Cn1ccnc1NC(=O)c1nc(Cl)cs1 [ZINC000851710058] | 
 | -0.03 K | Cc1nocc1NC(=O)Nc1ccnn1C(C)C [ZINC000866108350] | 
 | -0.15 K | CCC(C)(O)C(=O)Nc1nnc2n1CCCC2 (stereo not drawn) [ZINC000935297684] | 
0.15 K |  | Cc1cscc1NC(=O)NCc1cccc(-n2cncn2)c1 [ZINC001624168456] | 
 | 1.6 K and > 1 K | CC1(C)CC1(C)NC(=O)c1cc2cccn2cn1 (stereo not drawn) [compound 2] | IC50 [2, 4]: > 100 µM; ∆Tm (K) [1, 3]: 1.6 K
 | 0.6 K | Cc1ccc(CNC(=O)c2ccc(F)nc2)cc1 [compound 3] | IC50 [2, 4]: > 100 µM; ∆Tm (K) [1, 3]: 0.6 K
